Tested on: rats with permanent ligation of bilateral common carotid arteries (2VO)
Test: Chronic cerebral ischemia model in rats with permanent ligation of bilateral common carotid arteries (2VO)
Assay type: in vivo
Excerpt: After obtaining the active molecules that can promote the expression of VEGF-A mRNA in the animal model of inflammatory angiogenesis, a rat model of cerebral infarction was used for further verification. Following the method as described in Longa, E. Z., Longa, E. Z., Weinstein, P. R., Carlson, S. & Commin, R. Reversible middle cerebral artery occlusion without craniectomy in rats. [J]. Stroke, 1989. 1: 84-91, an acute cerebral infarction model was established in rats with middle cerebral artery occlusion (MCAO); and following the method as described in C. dela Torre, T. Fortin, G. A. S. Park, K. S. Butler, P. Kozlowski, B. A. Pappas, H. de Socarraz, J. K. Saunders and M. T. Richard. [J]. Brain Research, 1992. 582:186-195, a chronic cerebral ischemia model was established in rats with permanent ligation of bilateral common carotid arteries (2VO). The inhibition on cerebral infarction and neuroprotection for brain injury of the active molecules screened in Effect Example 2 were verified.
In the later period of the present invention, a chronic cerebral ischemia model was established in rats with permanent ligation of bilateral common carotid arteries (2VO). TG-028 (5 mg/kg) was administered to 5 rats in each group daily by intraperitoneal injection for 3 weeks. The effects of TG-028 and the control drug Edaravone (40 mg/kg) in the rat model of chronic cerebral ischemia were observed.
3 weeks after the establishment of the rat model of 2VO chronic cerebral ischemia, the Morris water maze experiment was performed on the test rats to determine the effects of drugs on animal learning and memory. The test rats were subjected to ambient positioning and memory training for 5 days. On Day 5 of the training, a positioning navigation experiment was carried out, and the duration for each group of rats from the time of entering the water from different water entry points facing the pool wall to the time of finding the platform, that is, the escape incubation period, was recorded. On Day 6, the platform was removed and a space exploration experiment was carried out. The swimming time of the rats in the target quadrant, the dwell time in the target quadrant, the distance in the target quadrant, and the number of passes through the platform were recorded in 120 s from the time of entering water from a quadrant opposing the target quadrant. The results of the water maze positioning and navigation experiment are shown in FIG. 8 (where Sham is a sham operation group).
After permanent ligation of the bilateral common carotid arteries, a 5-day positioning training was carried out, and […] Morris water maze space exploration experiment was performed after the training.

SMILES: COc1ccc(CCCCO[C@@H]2O[C@H](CO)[C@@H](O)[C@H](O)[C@H]2O)cc1 [TG-028]
- HE staining and Nissl staining of brain sections, hippocampal CA3 neurons (in words) (3 weeks after chronic cerebral ischemia, compared with 2VO+NaCl, FIG. 10): neatly and densely arranged
- Morris water maze positioning and navigation: escape incubation period and total distance (in words) (TG-028 5 mg/kg, Edaravone 40 mg/kg, 3 weeks of administration, FIG. 8): comparable effect
- Morris water maze space exploration: number of passes through the platform compared with 2VO+NaCl group (TG-028 5 mg/kg, Edaravone 40 mg/kg, 3 weeks, FIG. 9): increases significantly
- change in body weight compared with sham operation group (in words) (TG-028 5 mg/kg, Edaravone 40 mg/kg, i.p. daily, after 1 week, FIG. 7): no difference in weight change between the treatment group with TG-028 and the sham operation group

Reference: patent US11325937B2, “Glycoside compound and preparation method therefor, composition, application, and intermediate” (SHANGHAI HUTCHISON PHARMACEUTICALS LIMITED, priority 2018, dated 2022)
